Measurements: patent US7125877B2, “Benzimidazole derivatives” (Banyu Pharmaceutical Co., Ltd., priority 2002, dated 2006)
Where a name gives a salt, the structure may show the parent alone.

Tests used:
nociceptin receptor ORL1 [1] = target: T1, nociceptin receptor ORL1 (Homo sapiens, UniProt P41146); test: Nociceptin receptor binding inhibition assay ([125I]Tyr14-Nociceptin, SPA, CHO/ORL1 membranes); settings: 50 pM [125I]Tyr14-Nociceptin, CHO/ORL1 membrane, 37° C. for 60 minutes; read-out: IC50 value, nociceptin receptor binding inhibition action
T1 construct: expressed in transfected cells
Method: Pharmacological Test Example 1 (Nociceptin Receptor Binding Inhibition Assay)
cDNA which codes a human nociceptin receptor gene was cloned into an expression vector pCR3 (Invitrogen) to prepare pCR3/ORL1. Next, pCR3/ORL1 was transfected in CHO cells using a transfectam (Nippongene) to obtain a stable expression strain (CHO/ORL1 cells) having resistance against 1 mg/ml G418. Membrane fractions were prepared from this stable expression strain to carry out a receptor binding assay.
The membrane of 11 μg, 50 pM [^125I] Tyr^14-Nociceptin (Amersham Pharmacia), 1 mg Wheatgerm agglutinin SPA beads (PVT based; Amersham Pharmacia) and each test compound were suspended in an NC buffer (50 mM Hepes, 10 mM sodium chloride, 1 mM magnesium chloride, 2.5 mM calcium chloride, 0.1% BSA, 0.025% bacitracin, pH 7.4) and incubated at 37° C. for 60 minutes, and then the radioactivity was determined. The binding activity to the nociceptin receptor was indicated by the 50% inhibition concentration (IC50 value) of [^125I]Tyr^14-Nociceptin binding by each compound of the present invention.

nociceptin receptor ORL1 [2] = target: T1, nociceptin receptor ORL1; test: Antagonism against nociceptin-elicited G protein activation (GTPγ[35S] binding, CHO/ORL1 membranes); type: biochemical; settings: 50 nM nociceptin, 200 pM GTPγ[35S], CHO/ORL1 membrane, 25° C. for 150 minutes
Method: Pharmacological Test Example 2 (Antagonism Against Nociceptin-elicited G Protein Activation)
CHO cells which stably represented a nociceptin receptor ORL1 were used to investigate the action of each tested compound against nociceptin-elicited G protein activation. A membrane prepared from the CHO/ORL1 cells, 50 nM nociceptin, 200 pM GTPγ[^35S] (NEN), 1.5 mg Wheatgerm agglutinin SPA beads (Amersham Pharmacia) and each of the tested compounds were mixed in a GDP buffer (20 mM Hepes, 100 mM sodium chloride, 10 mM magnesium chloride, 1 mM EDTA, 5 μM GDP, pH 7.4) and incubated at 25° C. for 150 minutes, and then the radioactivity was determined. The antagonism against nociceptin-elicited G protein activation was shown by the 50% inhibition concentration (IC50 value) of each tested compound against GTPγ[^35S] binding.

T1 sequence (P41146 whole entry): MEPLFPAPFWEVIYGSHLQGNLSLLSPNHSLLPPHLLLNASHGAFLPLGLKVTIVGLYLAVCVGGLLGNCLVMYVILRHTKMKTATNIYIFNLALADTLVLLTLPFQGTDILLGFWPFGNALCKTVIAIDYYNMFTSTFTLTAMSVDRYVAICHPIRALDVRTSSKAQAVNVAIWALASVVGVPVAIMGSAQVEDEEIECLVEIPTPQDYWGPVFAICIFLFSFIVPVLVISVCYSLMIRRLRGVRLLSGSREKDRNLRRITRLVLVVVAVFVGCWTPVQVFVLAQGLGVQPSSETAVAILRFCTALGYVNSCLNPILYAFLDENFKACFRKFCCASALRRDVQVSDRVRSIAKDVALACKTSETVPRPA

SMILES	IC50 (nociceptin receptor ORL1 [1]) [nM]	IC50 (nociceptin receptor ORL1 [2]) [nM]
CCN1CCN(c2cc3[nH]c(C(=O)[C@]4(C)CC[C@@H](NC(=O)OC)CC4)nc3cc2C)C(C)C1 (single isomer, unassigned) [Example 2(2S*), 6-[4-ethyl-(2S*)-2-methylpiperazin-1-yl]-2-[(1,4-trans)-4-methoxycarbonylamino-1-methylcyclohexylcarbonyl]-5-methylbenzimidazole]	0.2	0.63
COC(=O)N[C@H]1CC[C@](C)(C(=O)c2nc3cc(Cl)c(N4CCN(CCO)CC4C)cc3[nH]2)CC1 (single isomer, unassigned) [Example 6(2S*), 5-chloro-6-[4-(2-hydroxyethyl)-(2S*)-2-methylpiperazin-1-yl]-2-[(1,4-trans)-4-methoxycarbonylamino-1-methylcyclohexylcarbonyl]benzimidazole-fumaric acid salt]	0.41	0.92
CCN1CCN(c2cc3[nH]c(C(=O)N(C)C4CCCCC4)nc3cc2Cl)C(C)C1 (stereo not drawn) [Example 39(2S*)]	29	
CCN1CCN(c2cc3[nH]c(C(=O)C4(C)CCN(C(C)=O)CC4)nc3cc2C)C(C)C1 (single isomer, unassigned) [Example 27(2S*), 2-(1-acetyl-4-methylpiperidinyl-4-carbonyl)-6-[4-ethyl-(2S*)-2-methylpiperazin-1-yl]-5-methylbenzimidazole]	1.9	1.5
COC[C@]1(C(=O)c2nc3cc(C)c(N4CCN5CCC[C@H]5C4)cc3[nH]2)CC[C@](C)(O)CC1 [Example 53, 6-[(S)-1,4-ziazabicyclo[4.3.0]nonan-4-yl]-2-[(1,4-trans)-4-hydroxy-1-methoxymethyl-4-methylcyclohexylcarbonyl]-5-methylbenzimidazole]	0.55	1
CCN1CCN(c2cc3[nH]c(C(=O)[C@]4(CC)CC[C@@H](NC(=O)OC)CC4)nc3cc2C)C(C)C1 (single isomer, unassigned) [Example 47(2S*), 2-[(1,4-trans)-1-ethyl-4-(methoxycarbonylamino)-cyclohexylcarbonyl]-6-[4-ethyl-(2S*)-2-methylpiperazin-1-yl]-5-methylbenzimidazole-fumaric acid salt]	0.22	0.36
CCN1CCN(c2cc3[nH]c(C(=O)[C@]4(C)CC[C@@H](O)CC4)nc3cc2Cl)C(C)C1 (single isomer, unassigned) [Example 24(2S*), 5-chloro-6-[4-ethyl-(2S*)-2-methylpiperazin-yl]-2-[(1,4-trans)-4-hydroxy-1-methylcyclohexylcarbonyl]benzimidazole]	2.1	2.8
CCN1CCN(c2cc3[nH]c(C(=O)[C@]4(CC)CC[C@@H](NC(=O)OC)CC4)nc3cc2Cl)C(C)C1 (single isomer, unassigned) [Example 15(2S*), 5-chloro-2-[(1,4-trans)-1-ethyl-4-(methoxycarbonylamino)-cyclohexylcarbonyl]-6-[4-ethyl-(2S*)-2-methylpiperazin-1-yl]benzimidazole-fumaric acid salt]	0.19	0.42
COC(=O)N[C@H]1CC[C@](C)(C(=O)c2nc3cc(C)c(N4CCN(CCO)CC4C)cc3[nH]2)CC1 (single isomer, unassigned) [Example 11(2S*), 6-[4-(2-hydroxyethyl)-(2S*)-2-methylpiperazin-1-yl]-2-[(1,4-trans)-4-methoxycarbonylamino-1-methylcyclohexylcarbonyl]-5-methylbenzimidazole-fumaric acid salt]	0.99	0.63
CCN1CCN(c2cc3[nH]c(C(=O)[C@]4(C)CC[C@@H](NC(=O)OC)CC4)nc3cc2Cl)C(C)C1 (single isomer, unassigned) [Example 1(2S*), 5-chloro-6-[4-ethyl-(2S*)-2-methylpiperazin-1-yl]-2-[(1,4-trans)-4-methoxycarbonylamino-1-methylcyclohexylcarbonyl]benzimidazole]	0.51	0.82
CCN1CCN(c2cc3[nH]c(C(=O)[C@]4(C)CC[C@@](C)(O)CC4)nc3cc2Cl)CC1 [Example 51, 5-chloro-2-[(1,4-trans)-1,4-dimethyl-4-hydroxycyclohexylcarbonyl]-6-(4-ethylpiperazin-1-yl) benzimidazole]	1.4	0.65
